Reference: patent US20060100263A1, “Antipyretic compositions and methods” (priority 2004, published 2006)
Structures can show the parent of a compound that is named as a salt. Marks after values point to notes of the source that are not given here.

How the values were obtained:
α1 adrenergic receptor = test: [3H]prazosin binding, rat cerebral cortex preparation
Experimental: At the end of 60 min, the assay was terminated by vacuum filtration and the amount of radioactivity deposited on the filter measured by scintillation counting.

α2 adrenergic receptor = α2 adrenergic receptor binding
[1] = blood pressure in human subjects; type: in vivo
[2] = oral temperature of normal human subjects; type: in vivo; conditions: 600 mg PO single dose; for Oral Temperature at Indicated Times of Treatment: normal humans
Experimental: Normal humans received either a placebo or 600 mg of bicifadine HCl (PO). Oral temperature readings were taken as part of an assessment of vital signs before and after administration of a single dose.
Oral temperature readings were taken as part of an assessment of vital signs before and after administration of a single dose of bicifadine to normal humans. The placebo group consisted of 150 subjects, while the bicifadine HCl group consisted of 151 individuals.

[3] = yeast-induced pyresis model in rats; type: in vivo, rat
Experimental: (§1) Groups of 6 rats were injected subcutaneously with saline solution or 40% brewers' yeast 18 hours prior to oral administration of bicifadine HCl or aspirin. The yeast was suspended in 0.85% saline and doses in a volume of 10 ml/kg. Rectal temperatures were recorded with a YSI 43TA telethermometer just prior to oral drug administration, and hourly for 3-4 hours. The post-treatment temperatures were compared to the initial temperatures of each group. Control animals were treated with vehicle and tested concurrently. In FIG. 1, the solid line represents the mean rectal temperature of normal rats (99.5° F.) and the standard error of that measure (0.1° F.) is indicated by the dashed lines.
(§2) The results shown in FIG. 1 indicate that rats treated with brewers' yeast 18 hours prior to drug administration develop a febrile response, manifested as a mean rectal temperature of 101.1° F. In contrast, normal rats treated only with vehicle have a rectal temperature of 99.5° F., 1.6° F. lower than the yeast-treated rats.

[4] = molecular target: recombinant human cyclooxygenase1 (COX1) (Homo sapiens, UniProt P23219); test: COX1 PGE2 synthesis assay; conditions: 0.1, 1, or 10 μM
recombinant human cyclooxygenase1 (COX1), sequence (P23219 24-599): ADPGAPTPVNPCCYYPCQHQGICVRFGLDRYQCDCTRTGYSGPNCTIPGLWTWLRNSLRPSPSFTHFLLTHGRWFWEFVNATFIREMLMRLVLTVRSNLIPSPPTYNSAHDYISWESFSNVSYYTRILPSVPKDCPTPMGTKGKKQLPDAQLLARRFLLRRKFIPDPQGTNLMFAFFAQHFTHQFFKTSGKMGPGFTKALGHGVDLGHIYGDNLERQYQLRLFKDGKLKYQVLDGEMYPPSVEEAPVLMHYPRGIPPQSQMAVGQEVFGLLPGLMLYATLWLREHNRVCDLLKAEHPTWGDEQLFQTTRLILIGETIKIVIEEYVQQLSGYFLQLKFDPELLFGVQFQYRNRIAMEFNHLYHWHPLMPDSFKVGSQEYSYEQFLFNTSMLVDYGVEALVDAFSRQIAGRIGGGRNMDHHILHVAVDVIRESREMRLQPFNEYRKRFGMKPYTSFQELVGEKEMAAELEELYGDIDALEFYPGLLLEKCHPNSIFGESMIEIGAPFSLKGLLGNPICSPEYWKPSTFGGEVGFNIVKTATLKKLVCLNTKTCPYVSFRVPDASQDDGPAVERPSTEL
Experimental: The assay mixture was incubated (10 min at 25° C. for COX1, 5 min-at 22° C. for COX2), then stopped and the amount of reaction product (PGE2) formed was measured by an enzyme-linked immunosorbent assay.

[5] = average body temperature of normal rats; type: in vivo, rat; conditions: for Mean Rectal Temperature at Indicated Hours Post-Treatment: 100 mg/kg PO
Experimental: as §1, §2

[6] = molecular target: 5-HT2A serotonin receptor (Homo sapiens, UniProt P28223); test: radioligand binding to 5-HT2A serotonin receptor
5-HT2A serotonin receptor, sequence (P28223 whole entry): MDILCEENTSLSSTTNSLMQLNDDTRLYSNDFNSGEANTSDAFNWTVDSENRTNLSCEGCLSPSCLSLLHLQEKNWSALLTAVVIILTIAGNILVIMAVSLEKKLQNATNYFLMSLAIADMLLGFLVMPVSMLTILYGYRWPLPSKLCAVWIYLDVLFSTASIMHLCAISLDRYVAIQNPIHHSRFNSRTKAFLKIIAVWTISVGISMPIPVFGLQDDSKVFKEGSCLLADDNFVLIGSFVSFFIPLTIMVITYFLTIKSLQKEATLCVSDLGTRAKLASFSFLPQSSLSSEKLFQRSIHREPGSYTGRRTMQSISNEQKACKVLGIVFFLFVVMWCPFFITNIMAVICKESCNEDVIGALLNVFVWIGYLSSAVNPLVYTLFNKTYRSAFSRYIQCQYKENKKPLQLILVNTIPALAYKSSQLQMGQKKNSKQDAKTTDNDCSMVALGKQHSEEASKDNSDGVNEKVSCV

[7] = molecular target: T1, recombinant human cyclooxygenase2 (COX2) (Homo sapiens, UniProt P35354); test: COX2 PGE2 synthesis assay; conditions: 0.1, 1, or 10 μM
T1 sequence (P35354 18-604): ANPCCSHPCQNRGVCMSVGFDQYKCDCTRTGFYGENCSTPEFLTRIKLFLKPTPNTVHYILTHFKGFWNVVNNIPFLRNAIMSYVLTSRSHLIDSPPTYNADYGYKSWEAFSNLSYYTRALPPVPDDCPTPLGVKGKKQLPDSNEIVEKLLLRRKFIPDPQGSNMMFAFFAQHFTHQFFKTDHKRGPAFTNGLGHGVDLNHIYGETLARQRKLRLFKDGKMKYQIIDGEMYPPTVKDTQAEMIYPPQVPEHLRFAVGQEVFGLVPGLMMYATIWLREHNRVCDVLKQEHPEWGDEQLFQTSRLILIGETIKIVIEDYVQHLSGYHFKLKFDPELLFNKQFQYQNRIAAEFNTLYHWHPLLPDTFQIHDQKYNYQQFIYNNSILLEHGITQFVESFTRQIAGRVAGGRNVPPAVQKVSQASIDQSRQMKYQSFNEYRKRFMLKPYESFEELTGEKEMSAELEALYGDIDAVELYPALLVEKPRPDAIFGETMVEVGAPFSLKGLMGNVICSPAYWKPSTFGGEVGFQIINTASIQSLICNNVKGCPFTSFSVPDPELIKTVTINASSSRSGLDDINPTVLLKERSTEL
Experimental: This was determined in assays using the rate limiting enzyme for prostaglandin synthesis, recombinant human cyclooxygenasel (COX1) and cyclooxygenase2 (COX2) expressed in Sf9 cells using a modified technique of Glaser et al (1995). These cells were incubated with arachidonic acid as the substrate (4, and 2 μM, respectively) and 0.1, 1, or 10 μM concentrations of bicifadine HCl in a suitable assay buffer. The assay mixture was incubated (10 min at 25° C. for COX1, 5 min-at 22° C. for COX2), then stopped and the amount of reaction product (PGE2) formed was measured by an enzyme-linked immunosorbent assay.

Compound: Cc1ccc([C@]23CNC[C@H]2C3)cc1 (racemic) [Bicifadine HCl, (±)-1-(4-methylphenyl)-3-azabicyclo[3.1.0]hexane hydrochloride]
- occupying binding sites on α1 adrenergic receptor (α1 adrenergic receptor): capable of occupying binding sites
- Ki (α1 adrenergic receptor; 0.25 nM [3H]prazosin, 60 min at 22° C.): 1 µM
- occupying binding sites on α2 adrenergic receptor (α2 adrenergic receptor): capable of occupying binding sites
- alterations in blood pressure [1]: did not cause significant alterations in blood pressure
- effect on normal human oral temperature (hypothermia) [2]: did not consistently lower normal human oral temperature
- Oral Temperature at Indicated Times of Treatment ([2]; 0.5 hr): 98.1 ° F.
- Oral Temperature at Indicated Times of Treatment ([2]; 1 hr): 98.1 ° F.
- Oral Temperature at Indicated Times of Treatment ([2]; 2 hr): 98.1 ° F.
- Oral Temperature at Indicated Times of Treatment ([2]; 3 hr): 98.0 ° F.
- Oral Temperature at Indicated Times of Treatment ([2]; 4 hr): 98.1 ° F.
- Oral Temperature at Indicated Times of Treatment ([2]; 5 hr): 98.2 ° F.
- Oral Temperature at Indicated Times of Treatment ([2]; 6 hr): 98.2 ° F.
- Oral Temperature at Indicated Times of Treatment ([2]; Follow-up): 97.8 ° F.
- Oral Temperature at Indicated Times of Treatment ([2]; Pre-Dose): 98.1 ° F.
- rectal temperature of yeast-fevered rats ([3]; 50 mg/kg PO, by the first hour after administration, vs pre-treatment temperature): significantly reduced rectal temperature
- duration of antipyretic effect ([3]; 100 mg/kg PO): 4 h
- rectal temperature of yeast-fevered rats ([3]; 100 mg/kg PO, normal rat temperature 99.5 °F): decrease rectal temperature to levels at or below normal
- antipyretic potency compared with aspirin ([3]; aspirin 200 mg/kg PO): more potent antipyretic than aspirin
- inhibitory effect on PGE2 synthesis by COX1 [4]: no significant inhibitory effect
- effect on rectal temperature of normal rats (hypothermia) [5]: did not consistently lower the rectal temperature of normal rats
- Mean Rectal Temperature at Indicated Hours Post-Treatment ([5]; 0 h): 98.9 ° F.
- Mean Rectal Temperature at Indicated Hours Post-Treatment ([5]; 1 h): 97.9* ° F.
- Mean Rectal Temperature at Indicated Hours Post-Treatment ([5]; 2 h): 98.3 ° F.
- Mean Rectal Temperature at Indicated Hours Post-Treatment ([5]; 3 h): 98.2 ° F.
- Mean Rectal Temperature at Indicated Hours Post-Treatment ([5]; 4 h): 97.5 ° F.
- inhibition of radioligand binding to 5-HT2A serotonin receptor [6]: significantly inhibited radioligand binding
- inhibitory effect on PGE2 synthesis by COX2 [7]: no significant inhibitory effect
